8 compounds from patent US4801616A, “Diphenylmethanone compounds and anti-inflammatory use thereof” (Eli Lilly and Company, priority 1986, dated 1989) can be followed below.

The experiment addresses T1, fatty acid cyclooxygenase (Homo sapiens, UniProt P23219).
T1 construct: The solubilized fatty acid cyclooxygenase was applied to a 440 ml electrofocusing column; from tissue; host or cells: human platelets: microsomes solubilized with Triton X-100, purified by electrofocusing and G-200 Sephadex
Briefly: Fatty Acid Cyclooxygenase (FCO) Assay, inhibition of PGE2 formation by purified human platelet enzyme. The experiment is classed as biochemical. The settings on record: for pIC50: human platelet microsomal enzyme, pH 8.0, 37° C.; for inhibition at 30 µg/mL: percent inhibition at 30 μg/ml. Here is the method:
Fatty Acid Cyclooxygenase (FCO) Assay
Microsomes were prepared from 185 bags of human platelets (each bag containing the platelets from one pint of blood prepared using differential centrifugation procedures). The platelets from approximately 60 bags were prepared at one time. Platelet-rich plasma (500 g) was centrifuged at 10,000×g for 20 minutes, and the platelet pellet was suspended in 100 ml of 0.1M potassium phosphate buffer, pH 8.0, with a Teflon glass homogenizer and sonicated for 5.0 minutes with a Bronson Sonifier (Model 350) in a rosette flask cooled in ice water. Disrupted platelets were centrifuged 15 minutes at 10,000× g. The supernatant was centrifuged at 100,000× g for 90 minutes and the microsomal pellets were homogenized in 25 ml of 20% sucrose containing 1.0% Triton X-100 detergent. After 30 minutes at 4° C., the solubilized microsomes were centrifuged at 100,000× g for 60 minutes. The yellow supernatant was removed and stored at -70 ° C.
The solubilized fatty acid cyclooxygenase was applied to a 440 ml electrofocusing column (LKB-8012) containing 1% phisolytes (Brinkman Instruments, Westburgh, NY), pH 2-11, with the cathode at the top of the column. The enzyme was layered onto the column at the appropriate time so that its sucrose concentration was equal to that of the column gradient. This was accomplished by checking the gradient concentration periodically with a sucrose hand refractometer. Electrofocusing was carried out for 16 hours with an initial voltage of 400 V and a final voltage of 900-1,000 volts. Fractions were collected (20 ml) and assayed for PGE2 formation. Active peak fractions were pooled and concentrated by ultrafiltration (XM 100A) to a volume of 3-5 ml.
Active fractions from electrofocusing were applied to a G-200 Sephadex column (2 cm×46 cm) and eluted with 10 mM potassium phosphate buffer, pH 7.0, in 5 ml fractions. After assay, active fractions were poored and concentrated to 1.0 ml by ultrafiltration (XM 100A), and kept frozen at -70° C.
Enzyme activity was determined by assaying for PGE2 formation by preincubating the enzyme with 10 mmol/l imidazole phosphate buffer, pH 8.0, 2 mmol/l epinephrine, 2 mmol/l methemoglobin, and the test compound (30 μg/ml) in a total volume of 0.2 ml for one minute at 37° C. After preincubation, 5 mmol/l ^14 C-arachidonic acid were added and the mixture was incubated an additional 0.5 minutes at 37° C. The enzyme reaction was stopped by the addition of 2 μl of indomethacin (2 mg/ml) in alcohol.
The reaction mixture was spotted (50 μl) on a silica gel (LQ6D) plate and subjected to TLC. The solvent system consisted of chloroform-methanol-glacial acetic acid (90:5:5, v/v/v) and the relative mobilities were PGF2α =0.235, and PGE2 =0.47. The silica gel on the plate was scraped in 1 cm sections, suspended in 5 ml of the scintillation fluid [5.88 g of 2,5-diphenyloxazole and 118 mg of 1,4 -bis(5-phenyloxazol-2-yl)benzene] dissolved in 650 ml of toluene and 350 ml of Triton X-100) and the radioactivity was determined in an Isocap/300 liquid scintillation counter (Searle Analytic, Inc., Southfield, Mich.). Another 50 μl of the mixture was added to 10 ml of the Triton X-100 based scintillation fluid, and the radioactivity was determined so that the amount of radioactivity recovery from the TLC plate could be ascertained. PGE2 formation for each test compound was determined as a percent of control experiments wherein no test compound was added. Data is expressed in Table I either as the percent inhibition of formation of PGE2 at a test compound concentration of 30 μ g/ml, or as an IC50 for inhibition of PGE2 formation.

pIC50: −log10 of the molar value.

T1 sequence (P23219 24-599): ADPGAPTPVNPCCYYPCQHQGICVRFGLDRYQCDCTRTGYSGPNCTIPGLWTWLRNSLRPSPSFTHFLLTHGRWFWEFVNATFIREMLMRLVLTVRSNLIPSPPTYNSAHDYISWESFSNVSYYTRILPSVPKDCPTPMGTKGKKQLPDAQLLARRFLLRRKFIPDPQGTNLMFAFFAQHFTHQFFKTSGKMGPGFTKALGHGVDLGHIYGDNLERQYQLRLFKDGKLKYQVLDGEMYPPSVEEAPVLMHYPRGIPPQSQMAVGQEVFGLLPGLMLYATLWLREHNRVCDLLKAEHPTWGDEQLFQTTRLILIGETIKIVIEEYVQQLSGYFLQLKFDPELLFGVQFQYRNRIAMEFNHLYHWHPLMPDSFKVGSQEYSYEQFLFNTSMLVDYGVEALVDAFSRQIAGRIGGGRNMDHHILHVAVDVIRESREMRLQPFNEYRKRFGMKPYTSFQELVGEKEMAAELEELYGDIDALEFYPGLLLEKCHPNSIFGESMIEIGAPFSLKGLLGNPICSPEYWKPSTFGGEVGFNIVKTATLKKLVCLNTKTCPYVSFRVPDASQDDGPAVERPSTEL

One may read the pIC50 as −log10 of the IC50, conventionally taken in molar units. A higher pIC50 goes with a small IC50. `CCCc1c(OCCCCCCCCc2nnn[nH]2)ccc(C(=O)c2ccccc2O)c1O` [Example 28, (2-Hydroxyphenyl)[2-hydroxy-3-propyl-4-([8-(1H-tetrazol-5-yl)octyl]oxy)phenyl]methanone] showed a pIC50 of 4.92. One may read the inhibition as the percentage by which the read-out fell short of the control. The low end stands for a response near the control, the high end for a response far below the control. For `CCCc1c(OCCCCc2nnn[nH]2)ccc(C(=O)c2ccccc2OC)c1O` [Example 23, (2-Hydroxy-3-propyl-4-[4-(1H-tetrazol-5-yl)butoxy]phenyl)(2-methoxyphenyl)methanone], testing at 30 µg/mL gave an inhibition of 17%. For the compound `CCCc1c(O)ccc(C(=O)c2ccccc2O)c1O` [Example 4, (2,4-Dihydroxy-3-propylphenyl)(2hydroxyphenyl)methanone], the pIC50 was 5.96. On to `CCCc1c(OCCCCC#N)ccc(C(=O)c2ccccc2O)c1O` [Example 11, 5-[3-Hydroxy-4-(2-hydroxybenzoyl)-2-propylphenoxy]pentanenitrile], for which the pIC50 is 4.07. With `COc1ccccc1C(=O)c1ccc(OC)c(C)c1O` [Example 9, (2-hydroxy-4-methoxy-3-methylphenyl)(2-methoxyphenyl)methanone], the inhibition at 30 µg/mL was 35%.

In turn, `CCCc1c(OCCCCc2nnn[nH]2)ccc(C(=O)c2ccccc2O)c1O` [Example 26, (2-Hydroxyphenyl)(2-hydroxy-3-propyl-4[4-(1H-tetrazol-5-yl)butoxy]phenyl)methanone] yielded an inhibition at 30 µg/mL of 44%. For `CCCc1c(OCCCCCCc2nnn[nH]2)ccc(C(=O)c2ccccc2O)c1O` [Example 25, (2-Hydroxyphenyl)[2-hydroxy-3-propyl-4-([6-(1H-tetrazol-5-yl)hexyl]oxy)phenyl]methanone], the pIC50 is 4.90. Same read-out and setting: to `CCCc1c(OCCCCC(=O)O)ccc(C(=O)c2ccccc2O)c1O` [Example 30, 5-[3-Hydroxy-4-(2-hydroxybenzoyl)-2-propylphenoxy]pentanoic acid] belongs 3.92.
